Usually IC50 stands for the midpoint of a concentration-inhibition curve.

These results are taken from patent US12173322B2, “Genome-edited induced pluripotent stem cells, and cells derived therefrom, and uses thereof” (priority 2020, dated 2024).

Data set [1] deals with hiPSC-CMs. The data set is described as follows: In vitro acidosis injury of hiPSC-CMs, cell death (LDH). The format is cell-based, human. The note with it: for cell death: 20 nM overnight. From the text: In vitro ischemia-acidosis injury model with hiPSC-CMs. Differentiated cardiomyocytes were replated on either day 15 or day 17 of differentiation for in vitro ischemia/acidosis assays. At the time of replating, a subset of cells (˜500,000) was set aside for flow cytometry analysis of cardiomyocyte purity (see supplemental methods). For all experiments, only cell preparations with >80% sarcomeric α-actinin-positive cardiomyocytes were used. After re-plating, the cells were maintained for an additional 7 days in RPMI+B27™. To prepare media for ischemia/acidosis injury, 10×HBSS without sodium bicarbonate (Sigma) was diluted to 1× concentration in sterile tissue culture-grade water. Solutions were buffered with either 12 mM HEPES (for pH 7.4 media, Sigma Aldrich) or 12 mM MES (for pH <6.5, Sigma Aldrich) and the pH adjusted accordingly with 1 M NaOH. The medium was sterile filtered with 0.22 μm syringe filters (Millipore). […] For reperfusion experiments, the medium was replaced with HBSS pH 7.4 (with or without peptide) after overnight incubation and cultured for 1 h under normoxic conditions. […] For all cell culture experiments, percent cell death was calculated using low and high controls. For low control (LC), cardiomyocytes were cultured overnight in standard culture media (RPMI+B27™). For high control (HC), cells were cultured in RPMI+B27™ containing 1% Triton™ X-100 (Sigma-Aldrich).
To assess whether ASIC1a inhibition is cardioprotective in hiPSC-CMs, the inventors evaluated cell death in response to in vitro acidosis, induced by culturing hiPSC-CMs in Hank's […] (HBSS) with pH adjusted to pH 7.4, 6.0, or 5.0. […] To mimic ischemia/acidosis in vitro, hiPSC-CMs were incubated overnight in combined hypoxic (0.5% O2) and acidic (pH 5.0) conditions with or without peptide.

In the next data set the target is T1, ASIC1a (Homo sapiens, UniProt P78348).
T1 sequence (P78348 1-528): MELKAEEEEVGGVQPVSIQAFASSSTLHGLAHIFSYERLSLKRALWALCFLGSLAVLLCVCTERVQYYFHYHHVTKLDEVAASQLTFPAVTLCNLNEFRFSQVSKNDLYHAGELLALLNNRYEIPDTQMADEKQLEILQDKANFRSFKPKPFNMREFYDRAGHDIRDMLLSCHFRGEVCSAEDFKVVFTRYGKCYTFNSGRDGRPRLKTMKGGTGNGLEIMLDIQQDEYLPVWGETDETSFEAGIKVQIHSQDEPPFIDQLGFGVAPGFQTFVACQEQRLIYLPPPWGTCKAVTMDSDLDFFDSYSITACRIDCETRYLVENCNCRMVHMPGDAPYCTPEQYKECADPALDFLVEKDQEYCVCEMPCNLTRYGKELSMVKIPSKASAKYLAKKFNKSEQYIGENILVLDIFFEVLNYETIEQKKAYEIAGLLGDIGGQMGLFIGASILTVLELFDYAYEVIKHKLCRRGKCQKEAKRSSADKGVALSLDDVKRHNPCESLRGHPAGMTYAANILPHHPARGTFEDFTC
The note with it: read-out: IC50, inhibitor of ASIC1a; cited from earlier work.

For data set [2], the system named is hiPSC-CMs. The data set is described as follows: hiPSC-CM calcium analysis (FLIPR Tetra). The format is cell-based, human. The note with it: any evaluated concentration (1 nM - 1 μM). How it is done: hiPSC-CM calcium analysis. Cardiomyocytes were replated (2×10^4 per well) in 384-well plates (CellBIND black with clear bottom, Corning) and cultured for 7 days in RPMI+B27™. On the day of the experiment, the cells were loaded for 1.5 h at 37° C. with FLIPR calcium 4 dye (Molecular Devices) diluted in HBSS pH 7.4. After loading, the plate was transferred to a FLIPR Tetra fluorescent plate reader (Molecular Devices). Calcium transients were measured with excitation wavelengths at 470-495 nm and emission at 515-575 nm. For each plate, the camera gain and intensity were adjusted to optimize signal intensity. Data for each well were expressed as normalized arbitrary fluorescence units. All data were acquired at 0.5 s per read, with baseline measurements for 45 s followed by at least 100 s of data collection after each peptide addition. Peptide solutions (in HBSS pH 7.4) were added to each well to give a final concentration of 1 nM, 10 nM, 100 nM, or 1 μM. Calcium amplitude, maximum calcium, minimum calcium, and spontaneous beating rate were analysed using ScreenWorks software (Molecular Devices) and normalized to baseline measurements.
Replated hiPSC-CMs were loaded with a fluorescent calcium dye and calcium transients were recorded before and after peptide addition.

For data set [3], the system named is Langendorff-perfused isolated mouse hearts. The experiment in a line: IRI in Langendorff-perfused isolated mouse hearts.
Protocol: IRI in Langendorff-perfused mouse hearts. […] Mice (12-14 weeks) were anesthetized via an intraperitoneal injection of 10 mg/mL ketamine and 1.6 mg/mL xylazil. The heart was excised via thoracotomy and the aorta cannulated. […] Temperature was continuously measured with thermocouple needle microprobes (SDR Scientific) and maintained at 37° C. with circulating water baths. Contractile function was measured via a fluid-filled balloon inserted in the left ventricle and connected to a pressure transducer (ADInstruments Pty Ltd.). Coronary flow was measured with an in-line Doppler flow probe positioned above the aortic cannulae (Transonic Systems Inc.). All functional data were recorded on a four-channel MacLab system (ADInstruments Pty Ltd.). Following 15-30 min of equilibration, hearts were switched to ventricular pacing at 420 beats/min (BPM) using a SD9 stimulator (Grass Instruments, Inc.). Baseline measurements were made for 10-20 min followed by 25 min of global normothermic ischemia and 45 min of reperfusion. Pacing was stopped during ischemia and resumed after 15 min of reperfusion. For peptide-treated experimental groups, 1 μM peptide solution was infused with a syringe pump (World Precision Instruments, LLC.) into the buffer, directly upstream of the cannula, at a rate of 1% of CF, for a final working concentration of 10 nM. Peptide was infused for 10 min prior to the onset of ischemia and during the first 15 min of reperfusion.
Data set [4] relates to hiPSC-CMs. The experiment in a line: In vitro ischemia/acidosis with reperfusion in hiPSC-CMs, cell death (LDH). The format is cell-based, human. The note with it: 10 nM; 18 h hypoxia (0.5% O2) pH 5.0, then 1 h pH 7.4 normoxia. The text has this:
In vitro ischemia-acidosis injury model with hiPSC-CMs. Differentiated cardiomyocytes were replated on either day 15 or day 17 of differentiation for in vitro ischemia/acidosis assays. At the time of replating, a subset of cells (˜500,000) was set aside for flow cytometry analysis of cardiomyocyte purity (see supplemental methods). For all experiments, only cell preparations with >80% sarcomeric α-actinin-positive cardiomyocytes were used. After re-plating, the cells were maintained for an additional 7 days in RPMI+B27™. To prepare media for ischemia/acidosis injury, 10×HBSS without sodium bicarbonate (Sigma) was diluted to 1× concentration in sterile tissue culture-grade water. Solutions were buffered with either 12 mM HEPES (for pH 7.4 media, Sigma Aldrich) or 12 mM MES (for pH <6.5, Sigma Aldrich) and the pH adjusted accordingly with 1 M NaOH. The medium was sterile filtered with 0.22 μm syringe filters (Millipore). […] For all cell culture experiments, percent cell death was calculated using low and high controls. […]
To assess whether ASIC1a inhibition is cardioprotective in hiPSC-CMs, the inventors evaluated cell death in response to in vitro acidosis, induced by culturing hiPSC-CMs in Hank's […] (HBSS) with pH adjusted to pH 7.4, 6.0, or 5.0. […]

Consider PcTx1, for which, in the data set with hiPSC-CMs [1] (overnight at pH 5.0, even at concentrations as low as 1 nM), the “cardioprotection against cell death (LDH)” value is reported as “nearly complete cardioprotection”. In addition, the IC50 with ASIC1a is ~1 nM. In addition, in the data set on hiPSC-CMs [2], the calcium amplitudes result is “Neither Hi1a nor PcTx1 altered” and the spontaneous beating rate result is “Neither Hi1a nor PcTx1 altered”. In data set [3] (after 45 min reperfusion, 10 nM peptide), this molecule yielded an EDP of 33±8 mmHg. Besides, in data set [3] (first 5 min of reperfusion), the “reactive hyperaemia during early reperfusion (increased CF)” value is listed as “significant reactive hyperaemia”. For the same molecule, the baseline contractile function entry in data set [3] (first 10 min of peptide infusion prior to ischemia, 10 nM) is on record as “no effect”. Moreover, the cell death entry with hiPSC-CMs [4] was “blocked”.

B1: MitTx (protein)
chain 1: QIRPAFCYEDPPFFQKCGAFVDSYYFNRSRITCVHFFYGQCDVNQNHFTTMSECNRVCHG
chain 2: NLNQFRLMIKCTNDRVWADFVDYGCYCVARDSNTPVDDLDRCCQAQKQCYDEAVKVHGCKPLVMFYSFECRYLASDLDCSGNNTKCRNFVCNCDRTATLCILTATYNRNNHKIDPSRCQ
For the molecule B1, the cell death result with hiPSC-CMs [1] (pH 6.0) and with hiPSC-CMs [1] (pH 7.4) was “increased cell death” throughout.
